Laboratory results from ChEMBL document CHEMBL5465560, “Selectivity Literature for EUbOPEN Chemogenomic Library” (2024).
One block for each compound: values may come before it.

Tests used:
[1] = target: T1, Serine/threonine-protein kinase ICK (Homo sapiens) (UniProt Q9UPZ9); experiment: Selectivity interaction (KinomeScan (DiscoverX)) EUB0000607a ICK; settings: at 10 µM
T1 sequence (whole entry): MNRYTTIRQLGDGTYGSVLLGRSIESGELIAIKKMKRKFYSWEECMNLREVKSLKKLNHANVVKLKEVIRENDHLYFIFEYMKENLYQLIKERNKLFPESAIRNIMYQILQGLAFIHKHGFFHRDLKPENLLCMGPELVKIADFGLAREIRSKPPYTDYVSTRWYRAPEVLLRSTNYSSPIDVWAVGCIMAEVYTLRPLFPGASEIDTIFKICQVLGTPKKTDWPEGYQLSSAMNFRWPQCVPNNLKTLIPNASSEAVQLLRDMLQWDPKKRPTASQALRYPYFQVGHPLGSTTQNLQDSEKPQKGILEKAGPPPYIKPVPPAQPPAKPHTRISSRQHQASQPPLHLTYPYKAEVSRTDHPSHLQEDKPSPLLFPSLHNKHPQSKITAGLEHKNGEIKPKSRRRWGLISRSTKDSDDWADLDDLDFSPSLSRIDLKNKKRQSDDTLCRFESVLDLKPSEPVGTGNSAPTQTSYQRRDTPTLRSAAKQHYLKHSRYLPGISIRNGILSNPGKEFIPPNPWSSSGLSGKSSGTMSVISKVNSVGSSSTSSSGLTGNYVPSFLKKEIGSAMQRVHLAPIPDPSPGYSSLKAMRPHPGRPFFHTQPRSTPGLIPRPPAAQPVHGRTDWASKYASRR

[2] = target: Serine/threonine-protein kinase PLK1 (Homo sapiens, UniProt P53350); settings: at 10 µM
[3] = target: Death-associated protein kinase 1 (Homo sapiens, UniProt P53355); experiment: Selectivity interaction (Kinase panel (Invitrogen)) EUB0000639a DAPK1; settings: at 200 nM
[4] = target: Protein arginine N-methyltransferase 8 (Homo sapiens, UniProt Q9NR22); experiment: Selectivity interaction (Methyltransferase screen (Scintillation proximity assays)) EUB0000255b PRMT8
[5] = target: STE20-like serine/threonine-protein kinase (Homo sapiens, UniProt Q9H2G2); experiment: Selectivity interaction (ProQinase) EUB0000171b SLK
[6] = target: Protein arginine N-methyltransferase 3 (Homo sapiens, UniProt O60678); experiment: Selectivity interaction (Methyltransferase screen (radiometric assays, panel of 8 PRMTs, 21 protein lysine methyltransferases, 3 DNA methyltransferases, and one RNA methyltransferase)) EUB0000271b PRMT3
[7] = target: Protein kinase C delta type (Homo sapiens) (UniProt Q05655); experiment: Selectivity interaction (KinomeScan (DiscoverX)) EUB0000595a PRKCD; settings: at 10 µM
[8] = target: Calcium/calmodulin-dependent protein kinase type II subunit beta (Homo sapiens) (UniProt Q13554); experiment: Selectivity interaction (Ambit KINOMEscan and KiNATiv profiling in Jurkat cells) EUB0000090b CAMK2B; format: cell-based; settings: at 1 µM
[9] = target: Tyrosine-protein kinase Blk (Homo sapiens) (UniProt P51451); experiment: Selectivity interaction (KinomeScan (DiscoverX)) EUB0000655a BLK; settings: at 10 µM
[10] = target: T2, Serine/threonine-protein kinase 3 (Homo sapiens) (UniProt Q13188); experiment: Selectivity interaction (KinomeScan (DiscoverX)) EUB0000045b STK3
T2 sequence (whole entry): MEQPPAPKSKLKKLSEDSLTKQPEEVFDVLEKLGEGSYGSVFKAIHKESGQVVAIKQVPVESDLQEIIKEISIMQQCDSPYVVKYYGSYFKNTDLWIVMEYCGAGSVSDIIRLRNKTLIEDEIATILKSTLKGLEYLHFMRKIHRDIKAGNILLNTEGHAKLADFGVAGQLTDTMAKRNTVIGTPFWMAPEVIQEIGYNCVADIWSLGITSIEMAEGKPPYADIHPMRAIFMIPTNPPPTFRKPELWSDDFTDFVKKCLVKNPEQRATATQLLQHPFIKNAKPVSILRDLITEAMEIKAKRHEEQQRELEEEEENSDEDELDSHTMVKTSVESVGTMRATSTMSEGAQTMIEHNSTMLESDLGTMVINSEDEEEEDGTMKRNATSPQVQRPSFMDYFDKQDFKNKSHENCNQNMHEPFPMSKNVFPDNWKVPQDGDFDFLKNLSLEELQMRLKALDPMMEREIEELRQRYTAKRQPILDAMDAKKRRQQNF

[11] = target: T3, Phosphatidylinositol 5-phosphate 4-kinase type-2 gamma (Homo sapiens) (UniProt Q8TBX8); experiment: Selectivity interaction (KinomeScan (DiscoverX)) EUB0001550a PIP4K2C; settings: at 1 µM
T3 sequence (whole entry): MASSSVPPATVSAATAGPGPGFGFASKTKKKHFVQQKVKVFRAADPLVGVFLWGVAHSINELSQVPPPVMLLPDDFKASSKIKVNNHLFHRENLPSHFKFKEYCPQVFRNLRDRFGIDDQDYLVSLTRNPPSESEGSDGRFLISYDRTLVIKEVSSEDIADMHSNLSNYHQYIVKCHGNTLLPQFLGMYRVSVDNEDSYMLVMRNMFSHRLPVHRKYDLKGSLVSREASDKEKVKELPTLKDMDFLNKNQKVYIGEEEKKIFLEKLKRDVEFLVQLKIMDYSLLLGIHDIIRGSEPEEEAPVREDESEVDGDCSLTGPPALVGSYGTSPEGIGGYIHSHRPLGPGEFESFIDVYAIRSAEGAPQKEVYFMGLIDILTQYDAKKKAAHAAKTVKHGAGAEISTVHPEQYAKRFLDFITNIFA

[12] = target: Mitogen-activated protein kinase kinase kinase 9 (Homo sapiens) (UniProt P80192); experiment: Selectivity interaction (KinomeScan (DiscoverX)) EUB0000092b MAP3K9; settings: at 10 µM
[13] = target: Serine/threonine-protein kinase 32B (Homo sapiens) (UniProt Q9NY57); experiment: Selectivity interaction (KinomeScan (DiscoverX)) EUB0000092b STK32B; settings: at 10 µM
[14] = target: Calcium/calmodulin-dependent protein kinase type II subunit alpha (Homo sapiens, UniProt Q9UQM7); experiment: Selectivity interaction (KinomeScan (DiscoverX)) EUB0001619a CAMK2A; settings: at 1 µM
Chain of Calcium/calmodulin-dependent protein kinase type II subunit alpha (Q9UQM7 whole entry): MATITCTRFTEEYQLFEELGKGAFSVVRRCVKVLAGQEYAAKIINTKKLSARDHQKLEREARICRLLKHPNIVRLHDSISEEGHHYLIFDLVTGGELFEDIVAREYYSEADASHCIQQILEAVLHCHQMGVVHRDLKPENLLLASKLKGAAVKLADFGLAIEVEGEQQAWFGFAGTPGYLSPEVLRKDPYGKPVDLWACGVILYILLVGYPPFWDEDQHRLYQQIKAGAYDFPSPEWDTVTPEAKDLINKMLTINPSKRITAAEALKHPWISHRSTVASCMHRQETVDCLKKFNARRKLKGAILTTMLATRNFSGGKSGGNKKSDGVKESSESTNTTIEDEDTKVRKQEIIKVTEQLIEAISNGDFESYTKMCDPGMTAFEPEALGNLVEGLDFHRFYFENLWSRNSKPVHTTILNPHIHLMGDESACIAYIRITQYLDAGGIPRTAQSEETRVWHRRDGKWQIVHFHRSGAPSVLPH

Chain of Protein arginine N-methyltransferase 3 (O60678 2-531 limits assumed): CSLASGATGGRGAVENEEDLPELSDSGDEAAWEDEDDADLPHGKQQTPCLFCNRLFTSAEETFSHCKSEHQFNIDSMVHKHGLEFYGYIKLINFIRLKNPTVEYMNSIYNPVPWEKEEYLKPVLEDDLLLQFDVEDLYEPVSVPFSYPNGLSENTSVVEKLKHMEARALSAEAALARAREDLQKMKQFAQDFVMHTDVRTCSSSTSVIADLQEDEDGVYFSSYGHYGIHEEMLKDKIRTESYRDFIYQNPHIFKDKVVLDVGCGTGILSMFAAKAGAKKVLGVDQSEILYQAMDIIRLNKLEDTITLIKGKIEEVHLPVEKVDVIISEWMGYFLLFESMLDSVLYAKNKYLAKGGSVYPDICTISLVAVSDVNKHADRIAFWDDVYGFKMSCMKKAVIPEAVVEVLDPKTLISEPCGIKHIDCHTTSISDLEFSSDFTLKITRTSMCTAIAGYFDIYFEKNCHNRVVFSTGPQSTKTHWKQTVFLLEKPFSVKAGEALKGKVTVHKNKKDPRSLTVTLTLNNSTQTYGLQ
Chain of Protein arginine N-methyltransferase 8 (Q9NR22 2-394 limits assumed): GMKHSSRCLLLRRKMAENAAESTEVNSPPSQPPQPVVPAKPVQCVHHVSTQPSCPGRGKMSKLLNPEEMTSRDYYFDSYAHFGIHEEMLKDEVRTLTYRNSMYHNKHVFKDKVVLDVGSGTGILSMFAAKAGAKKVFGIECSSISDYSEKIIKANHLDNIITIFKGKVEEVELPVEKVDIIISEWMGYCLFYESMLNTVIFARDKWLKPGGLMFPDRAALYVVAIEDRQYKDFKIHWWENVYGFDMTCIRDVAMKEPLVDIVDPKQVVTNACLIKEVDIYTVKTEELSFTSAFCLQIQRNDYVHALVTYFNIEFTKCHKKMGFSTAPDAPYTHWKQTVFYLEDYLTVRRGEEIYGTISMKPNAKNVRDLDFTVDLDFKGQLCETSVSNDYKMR
Chain of STE20-like serine/threonine-protein kinase (Q9H2G2 whole entry, looked up): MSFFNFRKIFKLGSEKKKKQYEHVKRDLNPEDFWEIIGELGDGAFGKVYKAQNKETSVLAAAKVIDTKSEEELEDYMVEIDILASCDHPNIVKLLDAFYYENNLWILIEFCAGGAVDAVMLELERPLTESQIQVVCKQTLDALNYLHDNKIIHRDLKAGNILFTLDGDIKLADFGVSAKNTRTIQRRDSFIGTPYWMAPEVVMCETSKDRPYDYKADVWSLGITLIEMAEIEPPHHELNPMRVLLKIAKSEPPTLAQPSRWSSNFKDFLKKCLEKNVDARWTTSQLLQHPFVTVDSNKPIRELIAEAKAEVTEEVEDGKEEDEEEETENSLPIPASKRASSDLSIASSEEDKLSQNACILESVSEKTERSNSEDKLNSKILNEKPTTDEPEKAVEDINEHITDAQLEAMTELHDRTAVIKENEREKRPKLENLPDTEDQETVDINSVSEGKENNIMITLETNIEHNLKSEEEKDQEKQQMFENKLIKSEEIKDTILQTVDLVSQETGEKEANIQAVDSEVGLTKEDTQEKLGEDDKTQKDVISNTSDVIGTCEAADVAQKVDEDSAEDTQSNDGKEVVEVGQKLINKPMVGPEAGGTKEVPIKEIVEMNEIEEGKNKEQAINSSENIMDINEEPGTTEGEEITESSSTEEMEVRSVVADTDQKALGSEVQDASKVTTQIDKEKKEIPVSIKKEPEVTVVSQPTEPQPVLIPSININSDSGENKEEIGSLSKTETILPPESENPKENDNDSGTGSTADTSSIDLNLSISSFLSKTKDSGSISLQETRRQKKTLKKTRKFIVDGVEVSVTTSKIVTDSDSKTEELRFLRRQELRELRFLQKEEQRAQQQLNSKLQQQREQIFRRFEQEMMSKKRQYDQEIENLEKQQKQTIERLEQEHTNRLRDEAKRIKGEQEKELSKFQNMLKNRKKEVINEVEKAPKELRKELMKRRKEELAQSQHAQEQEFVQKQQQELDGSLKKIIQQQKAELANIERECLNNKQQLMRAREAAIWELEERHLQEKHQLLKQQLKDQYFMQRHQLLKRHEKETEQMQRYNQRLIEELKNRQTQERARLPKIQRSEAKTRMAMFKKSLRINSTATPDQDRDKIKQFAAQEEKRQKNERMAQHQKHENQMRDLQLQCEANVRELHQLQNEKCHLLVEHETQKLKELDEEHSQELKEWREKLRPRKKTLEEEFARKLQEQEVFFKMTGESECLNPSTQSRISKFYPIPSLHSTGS
Chain of Serine/threonine-protein kinase PLK1 (P53350 whole entry): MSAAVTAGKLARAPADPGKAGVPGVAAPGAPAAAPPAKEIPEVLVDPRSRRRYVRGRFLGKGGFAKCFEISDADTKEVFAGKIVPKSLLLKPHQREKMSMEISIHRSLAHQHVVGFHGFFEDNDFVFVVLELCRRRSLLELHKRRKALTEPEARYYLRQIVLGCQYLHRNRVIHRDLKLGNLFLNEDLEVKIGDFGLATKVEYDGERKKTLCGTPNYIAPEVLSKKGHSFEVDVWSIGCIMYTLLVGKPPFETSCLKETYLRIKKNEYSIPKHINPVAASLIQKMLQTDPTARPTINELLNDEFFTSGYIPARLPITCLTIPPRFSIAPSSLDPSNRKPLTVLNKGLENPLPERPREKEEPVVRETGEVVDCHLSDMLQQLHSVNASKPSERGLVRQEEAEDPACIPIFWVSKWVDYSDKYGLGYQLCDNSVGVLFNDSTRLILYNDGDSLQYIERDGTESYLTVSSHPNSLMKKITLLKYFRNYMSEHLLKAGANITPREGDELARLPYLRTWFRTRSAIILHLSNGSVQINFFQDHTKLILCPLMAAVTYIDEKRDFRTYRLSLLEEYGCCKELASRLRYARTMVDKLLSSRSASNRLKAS
Chain of Serine/threonine-protein kinase 32B (Homo sapiens) (Q9NY57 whole entry): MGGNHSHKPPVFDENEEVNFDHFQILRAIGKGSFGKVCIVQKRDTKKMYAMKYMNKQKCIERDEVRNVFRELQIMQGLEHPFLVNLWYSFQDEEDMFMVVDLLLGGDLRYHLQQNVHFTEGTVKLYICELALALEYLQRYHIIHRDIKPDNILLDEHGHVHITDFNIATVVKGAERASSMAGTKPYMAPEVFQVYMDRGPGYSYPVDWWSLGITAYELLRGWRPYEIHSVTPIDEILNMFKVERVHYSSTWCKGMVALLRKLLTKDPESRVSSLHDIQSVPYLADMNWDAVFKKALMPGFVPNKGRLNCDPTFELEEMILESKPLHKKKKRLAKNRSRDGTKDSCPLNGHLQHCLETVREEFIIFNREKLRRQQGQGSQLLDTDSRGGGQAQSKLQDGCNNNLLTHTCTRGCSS
Chain of Protein kinase C delta type (Homo sapiens) (Q05655 whole entry, looked up): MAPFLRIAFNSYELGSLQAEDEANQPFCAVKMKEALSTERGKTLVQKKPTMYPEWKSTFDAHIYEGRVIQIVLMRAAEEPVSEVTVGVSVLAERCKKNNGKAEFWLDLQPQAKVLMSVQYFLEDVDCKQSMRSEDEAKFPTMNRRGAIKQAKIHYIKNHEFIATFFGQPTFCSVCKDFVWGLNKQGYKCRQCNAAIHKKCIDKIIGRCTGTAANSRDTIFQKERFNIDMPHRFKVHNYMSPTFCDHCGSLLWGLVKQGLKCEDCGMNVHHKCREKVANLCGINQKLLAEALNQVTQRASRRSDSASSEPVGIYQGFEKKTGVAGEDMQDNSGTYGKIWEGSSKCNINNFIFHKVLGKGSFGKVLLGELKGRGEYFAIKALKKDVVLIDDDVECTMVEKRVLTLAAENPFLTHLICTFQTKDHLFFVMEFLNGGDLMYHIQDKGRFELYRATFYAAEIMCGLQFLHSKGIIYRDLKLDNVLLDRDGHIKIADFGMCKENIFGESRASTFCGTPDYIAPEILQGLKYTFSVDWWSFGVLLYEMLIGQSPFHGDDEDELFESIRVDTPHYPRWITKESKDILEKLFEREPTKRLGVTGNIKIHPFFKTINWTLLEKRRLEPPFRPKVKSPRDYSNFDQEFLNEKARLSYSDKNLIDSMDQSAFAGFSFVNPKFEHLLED
Chain of Tyrosine-protein kinase Blk (Homo sapiens) (P51451 2-505 limits assumed): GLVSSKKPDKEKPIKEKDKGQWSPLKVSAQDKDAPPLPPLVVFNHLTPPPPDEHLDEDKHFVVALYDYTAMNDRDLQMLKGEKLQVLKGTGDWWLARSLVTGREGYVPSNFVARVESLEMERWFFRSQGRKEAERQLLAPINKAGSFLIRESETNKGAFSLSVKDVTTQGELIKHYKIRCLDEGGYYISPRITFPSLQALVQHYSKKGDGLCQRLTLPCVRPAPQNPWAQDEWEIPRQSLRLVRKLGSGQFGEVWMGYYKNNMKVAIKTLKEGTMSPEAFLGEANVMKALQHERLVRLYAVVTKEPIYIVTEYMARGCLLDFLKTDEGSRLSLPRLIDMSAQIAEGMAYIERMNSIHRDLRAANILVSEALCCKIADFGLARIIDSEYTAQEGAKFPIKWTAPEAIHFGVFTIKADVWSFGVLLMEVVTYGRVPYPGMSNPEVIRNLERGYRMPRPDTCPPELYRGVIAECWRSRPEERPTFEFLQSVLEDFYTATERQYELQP

SMILES: CNC(=O)Nc1ccc(-c2nc(N3CC4CCC(C3)O4)c3cnn(C4CCC5(CC4)OCCO5)c3n2)cc1
% of control [1]: 87%

% of control [2]: 100%
SMILES: CCN(CC)CCCCNc1ncc2cc(-c3cc(OC)cc(OC)c3)c(NC(=O)NC(C)(C)C)nc2n1

SMILES: CC[C@@H]1[C@H](F)C(=O)N[C@@H]1COc1nccc2cc(C(N)=O)c(OC)cc12 [ZIMLOVISERTIB]
% of inhibition [3]: 16.2%

SMILES: COCCN1CCC(c2cc(CN(C)C(=O)c3cccc(Oc4ccccc4)c3)ccn2)CC1
% activity ([4]; at 1 µM): 50%
% activity ([4]; at 10 µM): > 90%

% of control ([5]; at 1 µM): 102%
% of control ([5]; at 5 µM): 76%
SMILES: C=CC(=O)Nc1cccc(C(=O)Nc2ccc(Nc3cc(-c4[nH]c(SC)nc4C)ccn3)cc2)c1

SMILES: Cc1cc(C)cc([C@@H]2c3cc(C)ccc3NC(=O)CN2C(=O)c2ccc(Br)s2)c1
% of activity ([6]; at 1 µM): 100%
% of activity ([6]; at 10 µM): 98%

SMILES: COCC(=O)NC/C=C/c1ccc2ncnc(Nc3ccc(Oc4ccc(C)nc4)c(C)c3)c2c1 [CP-724714]
% of control [7]: 87%

SMILES: CN(C)C/C=C/C(=O)Nc1ccc(C(=O)N2CCCC(Nc3ncc(Cl)c(-c4c[nH]c5ccccc45)n3)C2)cc1 (stereo not drawn)
% of control [8]: 94%

SMILES: CN(C)CCOc1ccc(-c2nc(-c3ccncc3)c(-c3ccc4c(c3)CC/C4=N\O)[nH]2)cc1
% of control [9]: 59%

SMILES: C=CC(=O)Nc1cc(-n2c(=O)ccc3cnc4ccc(-c5ccc(NS(C)(=O)=O)cc5)cc4c32)ccc1C
% of control ([10]; at 1 µM): 62%
% of control ([10]; at 10 µM): 95%

% of control [11]: 53%
SMILES: CN(C)CC#Cc1ccc2[nH]c3c(c2c1)-c1nc(N)ncc1CCC3

SMILES: CCC(=O)N1CCN(c2ccc(-n3c(=O)ccc4cnc5ccc(-c6cnc7ccccc7c6)cc5c43)cc2C(F)(F)F)CC1
% of control [12]: 84%
% of control [13]: 87%

SMILES: N#Cc1cccc(-c2c[nH]c3ncnc(N4CCOCC4)c23)c1
% of control [14]: 79%
